Test results: PubChem BioAssay AID1919008 (Molecular Pharmacology Branch, DTP, NCI, 2023)

Test system: DMS-114 complex spheroids with HUVEC/MSC, growth % test/control
Experiment: Anticancer human tumor DMS-114 cell line growth inhibition [AhR];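 further: spheroids exposed to agents for 7 days before readout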;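 on viability, T/C: 100% = DMSO vehicle control wells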
Settings: for IC50: curve of first compound; for viability, T/C: stronger effect = lower value
How it was run: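 Spheroids combined tumor cells with HUVEC endothelial cells and human MSCs as stroma. AhR antagonists were paired with standard or investigational drugs, each dosed in half-log steps down from near clinical Cmax, or from 10 microM where Cmax was unknown.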

[1] = second compound 0.1 µM, first compound 0.0316 µM
[2] = second compound 0.1 µM, first compound 0.1 µM
[3] = second compound 0.1 µM, first compound 0.316 µM
[4] = second compound 0.1 µM, first compound 1 µM
[5] = second compound 0.1 µM, first compound 3.16 µM
[6] = second compound 0.1 µM, first compound 10 µM
[7] = second compound 0.316 µM, first compound 0.0316 µM
[8] = second compound 0.316 µM, first compound 0.1 µM
[9] = second compound 0.316 µM, first compound 0.316 µM
[10] = second compound 0.316 µM, first compound 1 µM
[11] = second compound 0.316 µM, first compound 3.16 µM
[12] = second compound 0.316 µM, first compound 10 µM
[13] = second compound 1 µM, first compound 0.0316 µM
[14] = second compound 1 µM, first compound 0.1 µM
[15] = second compound 1 µM, first compound 0.316 µM
[16] = second compound 1 µM, first compound 1 µM
[17] = second compound 1 µM, first compound 3.16 µM
[18] = second compound 1 µM, first compound 10 µM
[19] = second compound 3.16 µM, first compound 0.0316 µM
[20] = second compound 3.16 µM, first compound 0.1 µM
[21] = second compound 3.16 µM, first compound 0.316 µM
[22] = second compound 3.16 µM, first compound 1 µM
[23] = second compound 3.16 µM, first compound 3.16 µM
[24] = second compound 3.16 µM, first compound 10 µM
[25] = second compound 10 µM, first compound 0.0316 µM
[26] = second compound 10 µM, first compound 0.1 µM
[27] = second compound 10 µM, first compound 0.316 µM
[28] = second compound 10 µM, first compound 1 µM
[29] = second compound 10 µM, first compound 3.16 µM
[30] = second compound 10 µM, first compound 10 µM

| Compound | IC50 (second compound 0.1 µM) [nM] | IC50 (second compound 0.316 µM) [nM] | IC50 (second compound 1 µM) [nM] | IC50 (second compound 3.16 µM) [nM] | IC50 (second compound 10 µM) [nM] | viability, T/C [1] [%] | viability, T/C [2] [%] | viability, T/C [3] [%] | viability, T/C [4] [%] | viability, T/C [5] [%] | viability, T/C [6] [%] | viability, T/C [7] [%] | viability, T/C [8] [%] | viability, T/C [9] [%] | viability, T/C [13] [%] | viability, T/C [14] [%] | viability, T/C [19] [%] | viability, T/C [20] [%] | viability, T/C [25] [%] | viability, T/C [26] [%] | also measured |
| --- | --- | --- | --- | --- | --- | --- | --- | --- | --- | --- | --- | --- | --- | --- | --- | --- | --- | --- | --- | --- | --- |
| COc1cc(Nc2ncc3c(n2)-c2ccc(Cl)cc2C(c2c(F)cccc2OC)=NC3)ccc1C(=O)O + CC(CO)NC(=O)c1cc(-c2ccc(Cl)cc2)nn(-c2cnn(C)c2)c1=O | < 31.6 | < 31.6 | < 31.6 | < 31.6 | < 31.6 | 24.8 | 25.1 | 63.5 | 53.1 | 69.2 | 54.8 | 28.4 | 25.6 | 58 | 25.8 | 23.3 | 26.2 | 21.2 | 25.6 | 24.2 | viability, T/C [10]: 72%; viability, T/C [11]: 63.7%; viability, T/C [12]: 65.5%; viability, T/C [15]: 63.6%; viability, T/C [16]: 58.3%; viability, T/C [17]: 61.4%; viability, T/C [18]: 59.8%; viability, T/C [21]: 65.6%; viability, T/C [22]: 62.3%; viability, T/C [23]: 73.6%; viability, T/C [24]: 64.6%; viability, T/C [27]: 50.6%; viability, T/C [28]: 61.5%; viability, T/C [29]: 58.9%; viability, T/C [30]: 66.9% |
| Cn1ncnc1C1c2n[nH]c(=O)c3cc(F)cc(c23)NC1c1ccc(F)cc1 (stereo not given) + CC(CO)NC(=O)c1cc(-c2ccc(Cl)cc2)nn(-c2cnn(C)c2)c1=O | > 100 | > 100 | > 100 | > 100 | > 100 | 97.2 | 82 |  |  |  |  | 82 | 84.1 |  | 84 | 101 | 94.8 | 85.7 | 78.1 | 72.2 | viability, T/C (second compound 0.1 µM, first compound 0.000316 µM): 103%; viability, T/C (second compound 0.1 µM, first compound 0.001 µM): 95%; viability, T/C (second compound 0.1 µM, first compound 0.00316 µM): 101%; viability, T/C (second compound 0.1 µM, first compound 0.01 µM): 102%; viability, T/C (second compound 0.316 µM, first compound 0.000316 µM): 105%; viability, T/C (second compound 0.316 µM, first compound 0.001 µM): 95.5%; viability, T/C (second compound 0.316 µM, first compound 0.00316 µM): 103%; viability, T/C (second compound 0.316 µM, first compound 0.01 µM): 84.7%; viability, T/C (second compound 1 µM, first compound 0.000316 µM): 103%; viability, T/C (second compound 1 µM, first compound 0.001 µM): 116%; viability, T/C (second compound 1 µM, first compound 0.00316 µM): 109%; viability, T/C (second compound 1 µM, first compound 0.01 µM): 92.1%; viability, T/C (second compound 3.16 µM, first compound 0.000316 µM): 107%; viability, T/C (second compound 3.16 µM, first compound 0.001 µM): 105%; viability, T/C (second compound 3.16 µM, first compound 0.00316 µM): 109%; viability, T/C (second compound 3.16 µM, first compound 0.01 µM): 96.4%; viability, T/C (second compound 10 µM, first compound 0.000316 µM): 94.3%; viability, T/C (second compound 10 µM, first compound 0.001 µM): 106%; viability, T/C (second compound 10 µM, first compound 0.00316 µM): 104%; viability, T/C (second compound 10 µM, first compound 0.01 µM): 98.8% |
| NS(=O)(=O)OCC1CC(n2ccc3c(NC4CCc5ccccc54)ncnc32)CC1O (stereo not given) + CC(CO)NC(=O)c1cc(-c2ccc(Cl)cc2)nn(-c2cnn(C)c2)c1=O | < 31.6 | 38.1 | < 31.6 | 33.3 | < 31.6 | 39.8 | 35.6 | 16 | 11 | 7.57 | 6.46 | 53.4 | 32.2 | 17.7 | 47.9 | 35.5 | 50.6 | 34.8 | 49.4 | 40 | viability, T/C [10]: 9.64%; viability, T/C [11]: 8.09%; viability, T/C [12]: 6.7%; viability, T/C [15]: 16.3%; viability, T/C [16]: 12.2%; viability, T/C [17]: 7.56%; viability, T/C [18]: 7.46%; viability, T/C [21]: 17.8%; viability, T/C [22]: 11.7%; viability, T/C [23]: 8.81%; viability, T/C [24]: 6.82%; viability, T/C [27]: 18.3%; viability, T/C [28]: 10.8%; viability, T/C [29]: 8.39%; viability, T/C [30]: 8.61% |
| O=C(C=Cc1cccc(S(=O)(=O)Nc2ccccc2)c1)NO + CC(CO)NC(=O)c1cc(-c2ccc(Cl)cc2)nn(-c2cnn(C)c2)c1=O | 406 | 381 | 459 | 543 | 482 | 75.9 | 77.6 | 55.1 | 27.2 | 13.3 | 11.9 | 77.6 | 78.3 | 53.2 | 84.6 | 81.2 | 82 | 76.9 | 90.6 | 68.2 | viability, T/C [10]: 26.2%; viability, T/C [11]: 11.3%; viability, T/C [12]: 12.4%; viability, T/C [15]: 61.1%; viability, T/C [16]: 26.9%; viability, T/C [17]: 11.1%; viability, T/C [18]: 13.5%; viability, T/C [21]: 68.1%; viability, T/C [22]: 29.9%; viability, T/C [23]: 12.4%; viability, T/C [24]: 12.3%; viability, T/C [27]: 64.6%; viability, T/C [28]: 35%; viability, T/C [29]: 13.8%; viability, T/C [30]: 14.5% |
